These results are taken from patent publication US11208415B2, “Substituted indole Mcl-1 inhibitors” (Vanderbilt University, priority 2014, dated 2021).

The target in this assay is recombinant Mcl-1 (residues 172-327) (Homo sapiens (Human), UniProt Q07820). In words: Fluorescence polarization anisotropy competition assay (FITC-Bak or FITC-Bim BH3 peptide), Mcl-1. Conditions: FITC-labeled BH3 peptide (Bak or Bim) displacement; Ki converted from IC50; printed as range bins; read-out: Ki for Inhibition of Mcl-1. The format is binding. For orientation: Polarisation of emitted light reports the rotation of a fluorescent probe.

Some results are limits rather than exact numbers.

Sequence of recombinant Mcl-1 (residues 172-327) (Q07820 172-327): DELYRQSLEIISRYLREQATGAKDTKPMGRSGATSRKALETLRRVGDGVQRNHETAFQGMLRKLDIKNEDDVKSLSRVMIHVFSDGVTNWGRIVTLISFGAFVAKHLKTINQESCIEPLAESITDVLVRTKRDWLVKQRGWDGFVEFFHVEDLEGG

Consider `Cc1cc(OCCCc2c3n(c4c(-c5c(C)nn(C)c5C)c(Cl)ccc24)CCCN(c2cc(C(=O)O)c4cn(C)nc4c2)C3=O)cc(C)c1Cl` [Example I-366, 6-(8-chloro-1-(3-(4-chloro-3,5-dimethylphenoxy)propyl)-1-oxo-7-(1,3,5-trimethyl-1H-pyrazol-4-yl)-4,5-dihydro-1H-[1,4]diazepino[1,2-a]indol-2(3H)-yl)-2-methyl-2H-indazole-4-carboxylic acid], for which the Ki (in general, the dissociation constant of the complex between target and ligand, obtained from inhibition or displacement) was under 50 nM.
